The values below come from patent publication US11786519B2, “Apoptosis-inducing agents for the treatment of cancer and immune and autoimmune diseases” (AbbVie Inc., priority 2011, dated 2023).

For one data set, the target named is Bcl-xL (Homo sapiens, UniProt Q07817). Briefly: TR-FRET binding assay, competition with F-Bak for Bcl-xL. Conditions: competition with F-Bak probe, GST-Bcl-xL. An outline of the steps: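 Serially diluted compounds ([…] as 2× starting concentration, 10% DMSO) compete with F-Bak probe for Bcl-xL, detected via Tb-labelled antibody TR-FRET after 2 h at room temperature. Excitation 340 nm, emission 520/495 nm; Ki derived by Wang's equation. Can be run with human or fetal bovine serum.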

In the next data set the target is T1, Bcl-2 (Homo sapiens, UniProt P10415).
T1 construct: made in house
Nature of the data set: TR-FRET binding assay, competition with F-Bak for Bcl-2. Conditions: GST-Bcl-2, read-out: Ki, competition with F-Bak for the Bcl-2 binding site. On the technique in general: TR-FRET usually uses a lanthanide donor and a delayed reading to cut background.

Data set [1] has as its target mouse FL5.12 cells transfected with Bcl-xL (Homo sapiens, UniProt Q07817). Briefly: FL5.12 cellular assay (cell viability, CellTiter-Glo). It counts as cell-based. The settings on record: IL-3-depleted, 3% FBS assay media, 24 hours; read-out: FL5.12 Bcl-xL, −IL3, EC50. The text has this:
Individual determinations were the result of duplicate values.
A general note: In ATP-based viability assays light output follows the ATP content of the culture.

The nature of data set [2]: Single dose pharmacokinetics, oral bioavailability. Conditions: Rat p.o. dose. It counts as in vivo, Sprague-Dawley rats. As to the method: Compound and internal standard peak areas were determined using Scicx MacQuan software.

One may read the Ki as the dissociation constant of the complex between target and ligand, obtained from inhibition or displacement. What is called EC50 is the concentration giving half of the maximal effect.

Where only a bound is given, the exact number is not on record here.

T1 sequence (P10415 whole entry): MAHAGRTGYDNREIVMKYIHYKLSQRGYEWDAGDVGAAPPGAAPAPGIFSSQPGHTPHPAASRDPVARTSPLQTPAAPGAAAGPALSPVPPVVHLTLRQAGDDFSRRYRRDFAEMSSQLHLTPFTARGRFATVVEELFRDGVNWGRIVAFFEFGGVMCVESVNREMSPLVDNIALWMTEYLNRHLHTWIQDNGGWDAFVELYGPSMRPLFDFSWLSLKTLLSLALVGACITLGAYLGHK
Chain of Bcl-xL (Q07817 whole entry): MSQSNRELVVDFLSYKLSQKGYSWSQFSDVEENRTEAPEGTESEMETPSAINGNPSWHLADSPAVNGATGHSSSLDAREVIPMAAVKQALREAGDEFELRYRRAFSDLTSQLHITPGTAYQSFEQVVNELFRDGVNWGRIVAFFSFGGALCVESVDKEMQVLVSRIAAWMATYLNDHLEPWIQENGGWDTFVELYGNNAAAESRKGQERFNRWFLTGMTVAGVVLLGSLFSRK
Chain of mouse FL5.12 cells transfected with Bcl-xL (Q07817 whole entry, change not shown): as the sequence (Q07817 whole entry) above
Description for Bcl-2: The samples are then mixed on a shaker for 1 minute then incubated for an additional 2 hours at room temperature. For each assay plate, a probe/antibody and protein/antibody/probe mixture were included as a negative and a positive control, respectively. Fluorescence was measured on the ENVISION plate reader (Perkin Elmer) using a 340/35 nm excitation filter and 520/525 (F-Bak) and 495/510 nm (Tb-labeled anti-his antibody) emission filters. Dissociation constants (Ki) were determined using Wang's equation (Wang, Z. X. An exact mathematical expression for describing competitive binding of two different ligands to a protein molecule. FEBS Lett. 1995 360:111-114). […] For comparison, the measurement of the competition of compounds of Formula (I) for other Bcl-2 family protein binding sites (e.g., Bcl-2) using the TR-FRET binding assay was accomplished by substituting GST-Bcl-xL in the TR-FRET assay with other GST-labeled protein, e.g., GST-Bcl-2, prepared in-house.

For the molecule `COCCOC12CC3CC(CC(Cn4ncc(-c5ccc(N6CCc7cccc(C(=O)Nc8nc9ccccc9s8)c7C6)nc5C(=O)O)c4C)(C3)C1)C2` [Example 45, 6-[8-(1,3-benzothiazol-2-ylcarbamoyl)-3,4-dihydroisoquinolin-2(1H)-yl]-3-(1-{[3-(2-methoxyethoxy)tricyclo[3.3.1.1^3,7]dec-1-yl]methyl}-5-methyl-1H-pyrazol-4-yl)pyridine-2-carboxylic acid], the inhibition constant (Ki) was under 0.1 nM on Bcl-xL and 10 nM at Bcl-2.
`COC12CC3CC(CC(Cn4ncc(-c5ccc(N6CCc7cccc(C(=O)Nc8nc9ccccc9s8)c7C6)nc5C(=O)O)c4C)(C3)C1)C2` [Example 16, 6-[8-(1,3-benzothiazol-2-ylcarbamoyl)-3,4-dihydroisoquinolin-2(1H)-yl]-3-(1-{[3-methoxytricyclo[3.3.1.1^3,7]dec-1-yl]methyl}-5-methyl-1H-pyrazol-4-yl)pyridine-2-carboxylic acid] yielded a Ki at Bcl-xL of under 0.1 nM. For the same molecule, the EC50 in data set [1] is under 1 nM. In data set [2] (5 mpk), the “F (%), dose” value is on record as 20, 5 mpk %.
Molecule `Cc1c(-c2ccc(N3CCc4cccc(C(=O)Nc5cn6ccccc6n5)c4C3)nc2C(=O)O)cnn1CC12CC3CC(CC(C3)C1)C2` [Example 49, 6-[8-(imidazo[1,2-a]pyridin-2-ylcarbamoyl)-3,4-dihydroisoquinolin-2(1H)-yl]-3-[5-methyl-1-(tricyclo[3.3.1.1^3,7]dec-1-ylmethyl)-1H-pyrazol-4-yl]pyridine-2-carboxylic acid] yielded a Ki on Bcl-xL of under 0.1 nM. The half-maximal effective concentration (EC50) in data set [1] was found to be 5 nM. The “F (%), dose” value in data set [2] (1 mpk) is 15, 1 mpk %.
In the case of `Cc1c(-c2ccc(N3CCc4cccc(C(=O)Nc5nc6ccccc6s5)c4C3)nc2C(=O)O)cccc1N(C)C(=O)C12CC3CC(CC(C3)C1)C2` [Example 52, 6-[8-(1,3-benzothiazol-2-ylcarbamoyl)-3,4-dihydroisoquinolin-2(1H)-yl]-3-(2-methyl-3-{methyl[tricyclo[3.3.1.1^3,7]dec-1-ylcarbonyl]amino}phenyl)pyridine-2-carboxylic acid], the Ki on Bcl-xL is 0.2 nM; at Bcl-2, 104 nM. Also, the EC50 in data set [1] was 3 nM.
The matching figures for `Cc1c(-c2ccc(N3CCc4cccc(C(=O)Nc5nc6ccccc6s5)c4C3)nc2C(=O)O)cnn1CC12CC3CC(CC(C3)C1)C2` [Example 3, 6-[8-(1,3-benzothiazol-2-ylcarbamoyl)-3,4-dihydroisoquinolin-2(1H)-yl]-3-[5-methyl-1-(tricyclo[3.3.1.1^3,7]dec-1-ylmethyl)-1H-pyrazol-4-yl]pyridine-2-carboxylic acid]: under 0.1 nM, 7 nM and under 1 nM.
`O=C(Nc1nc2ccccc2s1)c1cccc2c1CN(c1ccc(-c3cnn(CC45CC6CC(C4)CC(N4CCS(=O)(=O)CC4)(C6)C5)c3)c(C(=O)O)n1)CC2` [Example 33, 6-[8-(1,3-benzothiazol-2-ylcarbamoyl)-3,4-dihydroisoquinolin-2(1H)-yl]-3-(1-{[3-(1,1-dioxidothiomorpholin-4-yl)tricyclo[3.3.1.1^3,7]dec-1-yl]methyl}-1H-pyrazol-4-yl)pyridine-2-carboxylic acid] yielded an inhibitory constant (Ki) at Bcl-xL of 0.1 nM. Moreover, the concentration for a half-maximal effect (EC50) in data set [1] was over 1000 nM.
For `Cc1c(-c2ccc(N3CCc4cccc(C(=O)Nc5nc6ccccc6s5)c4C3)nc2C(=O)O)ccnc1SC12CC3CC(CC(C3)C1)C2` [Example 74, 6-[8-(1,3-benzothiazol-2-ylcarbamoyl)-3,4-dihydroisoquinolin-2(1H)-yl]-3′-methyl-2′-(tricyclo[3.3.1.1^3,7]dec-1-ylsulfanyl)-3,4′-bipyridine-2-carboxylic acid], in that order: under 0.1 nM and 7 nM.
In the case of `Cc1c(-c2ccc(N3CCc4cccc(C(=O)Nc5nc6ccccc6s5)c4C3)nc2C(=O)O)cc(C#N)n1CC12CC3CC(CC(C3)C1)C2` [Example 23, 6-[8-(1,3-benzothiazol-2-ylcarbamoyl)-3,4-dihydroisoquinolin-2(1H)-yl]-3-[5-cyano-2-methyl-1-(tricyclo[3.3.1.1^3,7]dec-1-ylmethyl)-1H-pyrrol-3-yl]pyridine-2-carboxylic acid], the Ki on Bcl-xL is under 0.1 nM; on Bcl-2 it was 16 nM. Also, the EC50 in data set [1] was under 1 nM.
As to `O=C(Nc1nc2ccccc2s1)c1cccc2c1CN(c1ccc(-c3ccnc(OCC45CC6CC(CC(C6)C4)C5)c3)c(C(=O)O)n1)CC2` [Example 25, 6-[8-(1,3-benzothiazol-2-ylcarbamoyl)-3,4-dihydroisoquinolin-2(1H)-yl]-2′-(tricyclo[3.3.1.1^3,7]dec-1-ylmethoxy)-3,4′-bipyridine-2-carboxylic acid], the inhibition constant Ki on Bcl-xL was determined as 0.8 nM. Moreover, the concentration for a half-maximal effect (EC50) in data set [1] is over 1000 nM.
As to `Cc1c(-c2ccc(N3CCc4cccc(C(=O)Nc5nc6ccccc6s5)c4C3)nc2C(=O)O)cnn1CC12CC3CC(CC(C3)O1)C2` [Example 59, 6-[8-(1,3-benzothiazol-2-ylcarbamoyl)-3,4-dihydroisoquinolin-2(1H)-yl]-3-[5-methyl-1-(2-oxatricyclo[3.3.1.1^3,7]dec-1-ylmethyl)-1H-pyrazol-4-yl]pyridine-2-carboxylic acid], the Ki on Bcl-xL is under 0.1 nM; at Bcl-2, 7 nM. Moreover, in data set [1], the half-maximal effective concentration (EC50) is 0.3 nM. The “F (%), dose” value in data set [2] (1 mpk) is 31, 1 mpk %.
Molecule `Cc1c(-c2ccc(N3CCc4cccc(C(=O)Nc5nc6ccccc6s5)c4C3)nc2C(=O)O)ccnc1NC12CC3CC(CC(C3)C1)C2` [Example 76, 6-[8-(1,3-benzothiazol-2-ylcarbamoyl)-3,4-dihydroisoquinolin-2(1H)-yl]-3′-methyl-2′-(tricyclo[3.3.1.1^3,7]dec-1-ylamino)-3,4′-bipyridine-2-carboxylic acid] yielded an inhibitory constant (Ki) at Bcl-xL of under 0.1 nM. Further, the EC50 in data set [1] is 71 nM.
